Values quoted from earlier work as cited in patent US9452147B2, “Lipolytic methods” (Neothetics, Inc., priority 2005, dated 2016).

Key:
[1] = system: thigh circumference in women; conditions: subcutaneous injections three to five times per week in multiple locations over the thighs
[2] = relative to albuterol 5, a short acting hydrophilic beta agonist

SMILES | thigh circumference in women [1] | times more lipophilic than albuterol 5 [2]
CC(C)NCC(O)c1ccc(O)c(O)c1 (stereo not drawn) [isoproterenol] | reduce the thigh circumference | 
OCc1cc(C(O)CNCCCCCCOCCCCc2ccccc2)ccc1O (racemic) [salmeterol 1, ±2-(hydroxymethyl)-4-[1-hydroxy-2-[6-(4-phenylbutoxyl)hexylamino]ethyl]-phenol] |  | at least 10,000 times
COC(=O)[C@@H]1[C@H]2C[C@H]3c4[nH]c5ccccc5c4CCN3C[C@@H]2CC[C@@H]1O [yohimbine] | reduce the thigh circumference | 
